Assay [1] addresses Beta-1 adrenergic receptor (Cavia porcellus, UniProt B0FL73). As to the kind of experiment: Compound was evaluated for competitive antagonism of beta-1 adrenergic receptor in guinea pig atria measured as pA2 (-log KB). The assay is classed as functional. The note with it: read-out: pA2 (converted).
Assay [2] has as its target Beta-2 adrenergic receptor (Rattus norvegicus) (UniProt P10608). As to the kind of experiment: Compound was evaluated for competitive antagonism of beta-2 adrenergic receptor in rat uterus measured as pA2 (-log KB).

Each structure is given as a SMILES string. Structures can show the parent of a compound that is named as a salt.

Chain of Beta-1 adrenergic receptor (B0FL73 whole entry): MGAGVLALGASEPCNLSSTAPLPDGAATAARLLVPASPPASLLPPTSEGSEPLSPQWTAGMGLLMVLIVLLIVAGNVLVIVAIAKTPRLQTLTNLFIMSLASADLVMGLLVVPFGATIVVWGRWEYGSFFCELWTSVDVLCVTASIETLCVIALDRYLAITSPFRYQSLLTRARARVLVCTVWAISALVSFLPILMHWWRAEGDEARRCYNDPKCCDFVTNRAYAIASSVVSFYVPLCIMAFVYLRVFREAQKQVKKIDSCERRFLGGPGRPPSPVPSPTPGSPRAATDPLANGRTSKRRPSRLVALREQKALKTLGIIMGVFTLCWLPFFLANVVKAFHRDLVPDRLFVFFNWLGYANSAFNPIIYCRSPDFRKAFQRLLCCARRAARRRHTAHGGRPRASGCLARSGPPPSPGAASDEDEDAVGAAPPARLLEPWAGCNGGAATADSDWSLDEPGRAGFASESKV
Chain of Beta-2 adrenergic receptor (Rattus norvegicus) (P10608 whole entry, looked up): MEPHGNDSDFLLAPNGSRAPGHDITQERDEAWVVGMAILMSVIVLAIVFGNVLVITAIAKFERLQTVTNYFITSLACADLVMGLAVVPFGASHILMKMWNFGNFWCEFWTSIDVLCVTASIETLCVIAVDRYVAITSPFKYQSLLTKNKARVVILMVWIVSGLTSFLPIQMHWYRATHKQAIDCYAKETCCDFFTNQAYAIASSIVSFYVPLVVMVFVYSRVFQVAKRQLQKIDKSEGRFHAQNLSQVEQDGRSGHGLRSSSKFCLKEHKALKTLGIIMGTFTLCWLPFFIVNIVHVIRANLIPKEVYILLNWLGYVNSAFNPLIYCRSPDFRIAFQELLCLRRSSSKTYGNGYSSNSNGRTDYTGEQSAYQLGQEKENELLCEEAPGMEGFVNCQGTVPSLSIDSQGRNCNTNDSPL

For the molecule `CC(C)NCC(O)COC1=CC(=O)C(=O)c2ccccc21` (centres undefined), the Kb in assay [1] is 50.1 nM; in assay [2], 29.5 nM.
In the same order, the values of `CC(C)NCC(O)COc1ccc(O)c2ccccc12` (centres undefined) [4-HYDROXYPROPRANOLOL SULFATE] are 5.75 nM and 2.4 nM.

The record behind these values is ChEMBL document CHEMBL1122684, “The 3,4-catechol derivative of propranolol, a minor dihydroxylated metabolite” (J Med Chem, 1984).
